Experimental data taken from patent US9139532B2, “Pyrazolyl guanidine F1F0-atpase inhibitors and therapeutic uses thereof” (Lycera Corporation, priority 2010, dated 2015).
Read-outs that look alike come from different tables or passages of the source.

Columns and labels:
[1] = molecular target: T1, F1F0-ATPase (Bos taurus, UniProt P13621); assay: Inhibition of F1F0-ATPase activity in synthesizing ATP; type: biochemical; conditions: inhibition of ATP synthesis by F1F0-ATPase; read-out: ATP Syn IC50
T1 construct: from tissue

[2] = tested on: Ramos cells; assay: Cytotoxicity in Ramos cells; type: cell-based; conditions: cytotoxicity in Ramos cells, read-out: Ramos Cell EC50

Structure (SMILES)	IC50 [1] [µM]	EC50 [2] [µM]	EC50 ([2]; Homo sapiens) [µM]
O=C(/N=C(\Nc1cc(-c2ccc(F)cc2)[nH]n1)NC1CC1)c1ccc(F)cc1 [Compound A-193]	< 10	> 10	
Cc1ccc(-c2cc(N/C(=N\C(=O)c3ccc(C(F)(F)F)cc3)NC3CC3)[nH]n2)cc1F [Compound A-195]	< 10	< 10	
CC1(CN/C(=N/C(=O)c2ccc(F)cc2)Nc2cc(-c3ccc(F)cc3)n[nH]2)COC1 [Compound A-196]	< 10	< 10	
O=C(/N=C(\Nc1cc(-c2cc(F)cc(F)c2)n[nH]1)NC1COC1)c1ccc(F)c(F)c1 [Compound A-197]	< 10	< 10	
O=C(/N=C(\Nc1cc(-c2cc(F)cc(F)c2)n[nH]1)NC1CC1)c1ccc(F)c(F)c1 [Compound A-198]	< 10	< 10	
O=C(/N=C(\Nc1cc(-c2ccc(F)cc2)n[nH]1)NC1COC1)c1ccc(F)c(F)c1 [Compound A-199]	< 10	> 10	
CC1(CN/C(=N/C(=O)c2ccc(F)c(F)c2)Nc2cc(-c3ccc(F)cc3)n[nH]2)COC1 [Compound A-200]	< 10	> 10	
CC1(CN/C(=N/C(=O)c2cccc(F)c2)Nc2cc(-c3ccc(F)cc3)n[nH]2)CCCO1 (stereo not shown) [Compound A-201]	< 10	> 10	
O=C(/N=C(\Nc1cc(-c2ccc(F)cc2)n[nH]1)NC1CC1)c1cccc(F)c1 [Compound A-202]	< 10	> 10	
CCC(C)N/C(=N/C(=O)c1ccc(F)cc1)Nc1cc(-c2ccc(C)c(F)c2)n[nH]1 (stereo not shown) [Compound A-203]	< 10		< 10
COC[C@H](C)N/C(=N/C(=O)c1ccc(F)cc1)Nc1cc(-c2ccc(C)c(F)c2)n[nH]1 [Compound A-205]	< 10		< 10
CCC(C)N/C(=N/C(=O)c1ccc(F)cc1)Nc1cc(-c2ccc(F)cc2)n[nH]1 (stereo not shown) [Compound A-206]	< 10		< 10
CC(N/C(=N/C(=O)c1ccc(F)cc1)Nc1cc(-c2ccc(F)cc2)n[nH]1)C1CCCO1 (stereo not shown) [Compound A-207]	> 10	> 10	
O=C(/N=C(/NCC1CCCCO1)Nc1cc(-c2ccc(F)cc2)n[nH]1)c1ccc(F)cc1 (stereo not shown) [Compound A-208]	> 10	> 10	
CCC(C)N/C(=N/C(=O)c1ccc(F)cc1)Nc1cc(-c2ccc(Cl)cc2)n[nH]1 (stereo not shown) [Compound A-209]	< 10		< 10
CC1(CNC(=NC(=O)c2ccc(Cl)c(F)c2)Nc2cc(-c3ccc(F)cc3)n[nH]2)CCCO1 (stereo not shown) [Compound A-210]	< 10		< 10
CC1(CNC(=NC(=O)c2ccc(F)c(F)c2)Nc2cc(-c3ccc(Cl)cc3)n[nH]2)CCCO1 (stereo not shown) [Compound A-211]	< 10		> 10
CC1(CNC(=NC(=O)c2ccc(Cl)cc2)Nc2cc(-c3cc(F)cc(F)c3)n[nH]2)CCCO1 (stereo not shown) [Compound A-212]	< 10		< 10
CCOC(C)CN/C(=N/C(=O)c1ccc(Cl)c(F)c1)Nc1cc(-c2ccc(F)cc2)n[nH]1 (stereo not shown) [Compound A-213]	< 10	< 10	
CCOC(C)CN/C(=N/C(=O)c1ccc(F)c(F)c1)Nc1cc(-c2ccc(Cl)cc2)n[nH]1 (stereo not shown) [Compound A-214]	< 10	< 10	
O=C(N=C(NCC1CCO1)Nc1cc(-c2ccc(F)cc2)n[nH]1)c1ccc(Cl)c(F)c1 (stereo not shown) [Compound A-215]	> 10		> 10
CC(C)N/C(=N/C(=O)c1ccc(Cl)c(F)c1)Nc1cc(-c2ccc(F)cc2)n[nH]1 [Compound A-216]	< 10	< 10	
CCOCC(C)NC(=NC(=O)c1ccc(Cl)c(F)c1)Nc1cc(-c2ccc(F)cc2)n[nH]1 (stereo not shown) [Compound A-217]	< 10		< 10
COCC(C)NC(=NC(=O)c1ccc(Cl)c(F)c1)Nc1cc(-c2ccc(F)cc2)n[nH]1 (stereo not shown) [Compound A-218]	< 10	< 10	
CCC(C)N/C(=N/C(=O)c1ccc(Cl)c(F)c1)Nc1cc(-c2ccc(F)cc2)n[nH]1 (stereo not shown) [Compound A-219]	< 10	< 10	
CC(C)CN/C(=N/C(=O)c1ccc(Cl)c(F)c1)Nc1cc(-c2ccc(F)cc2)n[nH]1 [Compound A-220]	< 10	< 10	
O=C(N=C(Nc1cc(-c2ccc(F)cc2)n[nH]1)NC1CCCC1)c1ccc(Cl)c(F)c1 [Compound A-221]	< 10		< 10

Structure (SMILES)	IC50 [1] [µM]	EC50 [2] [µM]	EC50 ([2]; Homo sapiens) [µM]
O=C(/N=C(\Nc1cc(-c2ccc(F)cc2)n[nH]1)NC1CCC1)c1ccc(Cl)c(F)c1 [Compound A-222]	< 10	< 10	
O=C(N=C(NCC1CCO1)Nc1cc(-c2ccc(Cl)cc2)n[nH]1)c1ccc(F)c(F)c1 (stereo not shown) [Compound A-223]	< 10		< 10
O=C(N=C(Nc1cc(-c2ccc(Cl)cc2)n[nH]1)NC1CCC1)c1ccc(F)c(F)c1 [Compound A-224]	< 10		> 10
CCC(C)N/C(=N/C(=O)c1ccc(F)c(F)c1)Nc1cc(-c2ccc(Cl)cc2)n[nH]1 (stereo not shown) [Compound A-225]	< 10	< 10	
O=C(N=C(Nc1cc(-c2ccc(Cl)cc2)n[nH]1)NC1CCC1)c1ccc(Cl)c(F)c1 [Compound A-226]	< 10		< 10
COCC(C)NC(=NC(=O)c1ccc(Cl)cc1)Nc1cc(-c2cc(F)cc(F)c2)n[nH]1 (stereo not shown) [Compound A-228]	< 10	> 10	
O=C(/N=C(\Nc1cc(-c2cc(F)cc(F)c2)n[nH]1)NC1CCCC1)c1ccc(Cl)cc1 [Compound A-229]	< 10	< 10	
CC(C)N/C(=N/C(=O)c1ccc(Cl)cc1)Nc1cc(-c2cc(F)cc(F)c2)n[nH]1 [Compound A-230]	< 10	< 10	
O=C(N=C(Nc1cc(-c2cc(F)cc(F)c2)n[nH]1)NC1CCC1)c1ccc(Cl)cc1 [Compound A-231]	< 10		< 10
CC(C)(C)NC(=NC(=O)c1ccc(Cl)cc1)Nc1cc(-c2cc(F)cc(F)c2)n[nH]1 [Compound A-232]	< 10		< 10
CC(C)CNC(=NC(=O)c1ccc(Cl)cc1)Nc1cc(-c2cc(F)cc(F)c2)n[nH]1 [Compound A-233]	< 10		< 10
CCC(C)N/C(=N/C(=O)c1ccc(Cl)cc1)Nc1cc(-c2cc(F)cc(F)c2)n[nH]1 (stereo not shown) [Compound A-234]	< 10	< 10	
CCOCCN/C(=N/C(=O)c1ccc(F)c(F)c1)Nc1cc(-c2ccc(F)cc2)n[nH]1 [Compound A-235]	< 10	< 10	
O=C(/N=C(\Nc1cc(-c2ccc(Cl)cc2)n[nH]1)NC1CCC1)c1ccc(C(F)(F)F)cc1 [Compound A-236]	< 10	< 10	
CCOCC(C)NC(=NC(=O)c1ccc(C(F)(F)F)cc1)Nc1cc(-c2ccc(Cl)cc2)n[nH]1 (stereo not shown) [Compound A-237]	< 10	< 10	
COCC(C)NC(=NC(=O)c1ccc(C(F)(F)F)cc1)Nc1cc(-c2ccc(Cl)cc2)n[nH]1 (stereo not shown) [Compound A-238]	< 10		< 10
O=C(N=C(Nc1cc(-c2ccc(Cl)cc2)n[nH]1)NC1CCCC1)c1ccc(C(F)(F)F)cc1 [Compound A-239]	< 10		> 10
CC(C)CN/C(=N/C(=O)c1ccc(C(F)(F)F)cc1)Nc1cc(-c2ccc(Cl)cc2)n[nH]1 [Compound A-240]	< 10	< 10	
CC(C)N/C(=N/C(=O)c1ccc(C(F)(F)F)cc1)Nc1cc(-c2ccc(Cl)cc2)n[nH]1 [Compound A-241]	< 10	< 10	
CCOC[C@H](C)NC(=NC(=O)c1ccc(F)cc1)Nc1cc(-c2cc(F)cc(F)c2)n[nH]1 [Compound A-242]	< 10		< 10
O=C(/N=C(\Nc1cc(-c2cc(F)cc(F)c2)n[nH]1)NC1CCCC1)c1ccc(F)cc1 [Compound A-243]	< 10	< 10	
CC(C)CN/C(=N/C(=O)c1ccc(F)cc1)Nc1cc(-c2cc(F)cc(F)c2)n[nH]1 [Compound A-244]	< 10	< 10	
CC(C)N/C(=N/C(=O)c1ccc(F)cc1)Nc1cc(-c2cc(F)cc(F)c2)n[nH]1 [Compound A-245]	< 10	< 10	
COCC(C)NC(=NC(=O)c1ccc(F)c(F)c1)Nc1cc(-c2cc(F)cc(Cl)c2)n[nH]1 (stereo not shown) [Compound A-246]	< 10		< 10
CCOC[C@H](C)N/C(=N/C(=O)c1ccc(F)c(F)c1)Nc1cc(-c2cc(F)cc(Cl)c2)n[nH]1 [Compound A-247]	< 10		< 10
O=C(N=C(Nc1cc(-c2ccc(F)cc2)n[nH]1)NC1CCCC1)c1ccc(Cl)cc1 [Compound A-248]	< 10		< 10
